# From PMC9822769, “The Strange Case: The Unsymmetric Cisplatin-Based Pt(IV) Prodrug [Pt(CH3COO)Cl2(NH3)2(OH)] Exhibits Higher Cytotoxic Activity with respect to Its Symmetric Congeners due to Carrier-Mediated Cellular Uptake” (Bioinorganic Chemistry and Applications, 2022)
# What was measured:
# [1] = tested on: A2780 cells; assay: DNA platination in A2780 cells; assay type: cell-based, human; settings: A2780, 24 h CT, 10 μM
# Description: Cells were seeded in 175 cm^2 flasks and treated for 24 h with the complexes under investigation (10 μM) as described previously. From this sample, about 5 × 10^6 cells were taken out for the cellular accumulation analysis (see the previous section), whereas about 20 × 10^6 cells were taken out for the DNA platination analysis.
# For DNA platination analysis, cells were transferred to a plastic tube and centrifuged at 1100 rpm for 5 min at room temperature. […]
# After washing, DNA was eluted in 300 μL of elution buffer. […] Absorbance at 260 nm (A260, relative to nucleic acids) and 280 nm (A280, relative to proteins) was recorded from triplicate wells.
# For each well, A260 and A280 were corrected by subtracting the background, and then the purity of the samples was verified by means of the A260 to A280 ratio. After subtracting the mean A260 from the blank wells, the DNA concentration was calculated from the corrected A260 using a calibration curve obtained with the calf thymus DNA. Under these conditions, an absorbance of 1 unit at 260 nm corresponds to 100 μg of DNA per mL. The remaining amount of DNA elution buffer was transferred to a borosilicate glass tube, and its precise volume was determined by weight to calculate the total amount of DNA and then stored at −20°C until mineralization. […]
# [2] = tested on: A2780cisR cells; assay: Cellular Pt accumulation (accumulation ratio) in A2780cisR cells; assay type: cell-based, human; settings: 4 h CT, 10 μM
# Description: A2780 and A2780cisR cells were seeded in 10 mm Petri dishes and challenged with complexes under investigation (10 μM) in a complete medium for 4 h. At the end of the exposure, cells were washed three times with PBS, detached from Petri dishes using 0.05% trypsin 1x + 2% EDTA (HyClone, Thermo Fisher), and harvested in a completely fresh medium. An automatic cell counting device (Countess®, Life Technologies) was used to measure the number and mean diameter of each cell necessary to calculate the mean cellular (spherical) volume.
# For the analysis of Pt accumulation, cells were transferred to a borosilicate glass tube and centrifuged at 1100 rpm for 5 min at room temperature. […]
# The determination of the platinum content was performed by ICP-MS (Thermo Optek X Series 2). […] The instrument settings were optimized to produce the highest platinum sensitivity, and the most abundant isotopes of Pt and In (used as an internal standard) were quantified at m/z 195 and 115, respectively.
# The quantity of Pt found in cells and normalized on cell number (cellular Pt accumulation) was expressed as ng of Pt per 10^6 cells. The mean cellular volume, calculated from the actual mean cell diameter measured for each sample (about 12 μm), was used to obtain the volume of 10^6 cells and, finally, the intracellular Pt concentration. […]
compound,measurement,setting,value
"CC(=O)[O][Pt]([OH])([Cl])[Cl].N.N [Complex 2, (OC-6-44)-acetatodiamminedichloridohydroxidoplatinum(IV)]",DNA platination,[1],the highest among Complexes 1–3 and was similar to that of cisplatin
"N.N.[Cl][Pt][Cl] [Cisplatin, (SP-4-2)-diamminedichloridoplatinum(II)]",Pt accumulation (AR) in A2780cisR compared with A2780,[2],much lower amounts of Pt than A2780
